From patent US20250084178A1, “ANTI-CD39 ANTIBODIES AND USE THEREOF” (ARCUS BIOSCIENCES, INC., priority 2022, published 2025)

Assays:
CT26 and MC38 cells = assay: Extracellular ATP release after oxaliplatin, murine colon carcinoma lines; assay type: cell-based; conditions: 250 μM oxaliplatin, 8 hours
Protocol: (§1) To evaluate cellular ATP release following oxaliplatin treatment, murine colon carcinoma cell lines CT26 and MC38 and human melanoma cell line SK-MEL-5 were defrosted, rinsed, and resuspended in their respective culture media. Culture media for CT26 and MC38 is RPMI+10% FBS+1% glutamax+1% penicillin-streptomycin+1% sodium pyruvate. Culture media for SK-MEL-5 is EMEM+10% FBS+1% glutamax+1% penicillin-streptomycin+1% sodium pyruvate. Cells were plated at 2.5×10^4 cells per well in a 96-well plate and incubated overnight at 37° C., 5% CO2. The following day, the cells were treated with the vehicle (PBS), 100 μM or 250 μM oxaliplatin. […] To determine cellular viability, the cells were incubated with treatments for 24 hours at 37° C., 5% CO2. At the end of the incubation period, viability was determined using luminescence-based Cell Titer Glo 2.0 assay (Promega, Cat. No. G9242). Data are presented as viability normalized to untreated vehicle controls (FIG. 19A). To determine HMGB1 release, the cells were incubated with treatment for 24 hours at 37° C., 5% CO2. At the end of the incubation period, the plates were centrifuged at 400×g for 5 minutes and supernatants were collected. HMGB1 levels in the culture supernatants were then determined using Lumit HMGB1 Kit (Promega, Cat. No. CS3030B01) following manufacturer's instructions (FIG. 19B). […]

SK-MEL-5 cells = assay: Extracellular ATP release after oxaliplatin, SK-MEL-5 cells; assay type: cell-based, human; conditions: 250 μM oxaliplatin, 8 hours
Protocol: as §1

In the case of `O=C1[O][Pt]2([NH][C@@H]3CCCC[C@H]3[NH]2)[O]C1=O` [oxaliplatin, reference compound], the “Extracellular ATP release” value (CT26 and MC38 cells) is reported as “demonstrated ATP release” and the “Extracellular ATP release” value (SK-MEL-5 cells) is reported as “demonstrated ATP release”.
